Measured values published in patent US7291627B2, “Dihydroimidazo[5.1-a]-beta-carboline derivatives, method for their preparation, and their application as a drug” (MACEF, priority 2001, dated 2007).

Tested on: JA 657 chicks
Assay: Chick sleep/sedation test (IM injection, 90 minute observation)
Assay type: in vivo
Conditions: for Sed (sedation time as % of the period) / TA (time to torpor between injection and first stage of sleep) / TS (duration of the first sleep) / Tsed (total sedation time over the period): 90 min observation; for TS (mins) Placebo diff'ce: extension of first sleep compared with test controls
Experimental: The dihydroimidazo[5,1-a]-β-carboline derivatives of the invention, in particular those in the form of the methyl sulfonate, (soluble), were tested in chicks, and certain compounds that were active in the chick were administered in single doses to six Beagle dogs of both sexes for a polysomnographic study of at least 4 hours duration.
JA 657 chicks from Couvoir Gauguet, 44 Le Pin, were accustomed for at least 6 days to an alternating program of light and darkness with 12 hours of daylight and 12 hours of darkness at a regulated temperature of 25±2° C. They were fed ad libitum and were placed under test compounds in a vivarium in groups of 3 individuals with a mean weight of 100±10 g on the day of the test. At that age in this species, there is no effective meningeal (hemato-encephalic) barrier. The test products were injected in 3 doses (1, 3 and 10 mg/kg) intramuscularly (IM) in solution or in an aqueous suspension (1 drop of Tween 80 per ml), each to two batches of 3 chicks which were observed over 90 minutes. For each test series (18 vivaria), there was at least one batch of negative control chicks receiving the same volume (0.2 ml IM) of water for injectable preparations.
During the 90 minute observation period, the chicks were strongly stimulated every 15 minutes by presenting a full feeding trough, and each 5 minute period was given a grade from among the following 5 states, corresponding to the state of alertness over that period:
Mobile, sitting alert, drowsy, asleep, sleep-like state. The parameters studied were the time to torpor (TA) passed between injection and the first stage of sleep, the duration of the first sleep (TS) and the total sedation time over the period (Tsed), expressed in minutes and as a % of the period (Sed).
To compare the results of tests carried out at different dates, the extension of the duration of the first sleep TS compared with the test controls was recorded.

Compound | Sed (sedation time as % of the period) (Dose: 1 mg/kg) [%] | TA (time to torpor between injection and first stage of sleep) (Dose: 1 mg/kg) [min] | TS (duration of the first sleep) (Dose: 1 mg/kg) [min] | Tsed (total sedation time over the period) (Dose: 1 mg/kg) [min] | TS (mins) Placebo diff'ce (Dose: 1 mg/kg) [min] | Sed (sedation time as % of the period) (Dose: 3 mg/kg) [%] | TA (time to torpor between injection and first stage of sleep) (Dose: 3 mg/kg) [min] | TS (duration of the first sleep) (Dose: 3 mg/kg) [min] | Tsed (total sedation time over the period) (Dose: 3 mg/kg) [min] | TS (mins) Placebo diff'ce (Dose: 3 mg/kg) [min] | Sed (sedation time as % of the period) (Dose: 10 mg/kg) [%] | TA (time to torpor between injection and first stage of sleep) (Dose: 10 mg/kg) [min] | TS (duration of the first sleep) (Dose: 10 mg/kg) [min] | Tsed (total sedation time over the period) (Dose: 10 mg/kg) [min] | TS (mins) Placebo diff'ce (Dose: 10 mg/kg) [min]
CS(=O)(=O)O.Cc1ccc2[nH]c3c(c2c1)CCn1c-3cnc1C [Example 18, 3,8-dimethyl-5,6-dihydroimidazo[5,1-a]-β-carboline methane sulfonate] | 69.4 | 5 | 32.5 | 62.5 | 24 | 63.9 | 4.5 | 30.5 | 57.5 | 22.5 | 90.6 | 7.5 | 76 | 81.5 | 68
CS(=O)(=O)O.Cc1ncc2n1CCc1c-2n(C)c2ccc(Cl)cc12 [Example 16, 8-chloro-3,11-dimethyl-5,6-dihydroimidazo-[5,1-a]-β-carboline methane sulfonate] | 41 | 11.5 | 15 | 37 | 14.7 | 33.9 | 13.5 | 20.5 | 30.5 | 20 | 58.3 | 7.5 | 31 | 52.5 | 52
CS(=O)(=O)O.Cc1ncc2n1CCc1c-2[nH]c2ccccc12 [Example 12, 3-methyl-5,6-dihydroimidazo[5,1-a]-β-carboline methane sulfonate] | 51.7 | 10 | 39.5 | 46.5 | 39 | 63.9 | 3.5 | 42 | 57.5 | 41.7 | 98.9 | 1 | 89 | 89 | 88.7
CCc1nc(C)n2c1-c1[nH]c3ccc(OC)cc3c1CC2 [Example 5, 1-ethyl-8-methoxy-3-methyl-5,6-dihydro-imidazo[5,1-a]-β-carboline] | 58.3 | 20.5 | 33 | 52.47 | 29 | 76.7 | 14.5 | 53 | 69.0 | 49 | 62.8 | 13.5 | 40.5 | 56.5 | 36.5
CS(=O)(=O)O.Cc1ncc2n1CCc1c-2[nH]c2ccc(O)cc12 [Example 11, 8-hydroxy-3-methyl-5,6-dihydroimidazo[5,1-a]-β-carboline methane sulfonate] | 29.4 | 40 | 0 | 26.5 | -0.3 | 38.3 | 15 | 7 | 34.5 | 6.7 | 20.6 | 6 | 9.5 | 18.5 | 9
